Entries after “also recorded” stand apart in the source; their conditions may differ.
Tests used:
[1] = Toxicity of intraperitoneal DAL in SCID mice; assay type: in vivo; conditions: intraperitoneal doses of up to 100 mg/kg
Description: A cell-based readout system was used for compound selection. For the cell-based screening, an optimal cell density of 10,000 breast cancer MDA-MB-231 cells/well was selected to produce the most prominent signal. The plated cells were incubated with each library compound, washed with PBS, and the Cell Titer-Glo (Promega) reagent was used to detect the number of cells remaining attached in each well. This ATP-based detection has a linear relationship between the luminescent signal and the number of cells per well. Of the 50,000 compounds screened, 86 library compounds (0.172% of screened compounds) were selected at 1.67 μM concentration for the second screening step. […] As a further test of toxicity, DAL was injected intraperitoneally at 100 mg/kg in SCID mice and signs of toxicity including cachexia, ruffled fur, diarrhea, anorexia, skin ulceration, and toxic death were monitored.
A screening strategy was developed to identify potential agents that target adhesion of endothelial cells or cancer cells to their substrate. […] The initial screening step quantified the number of cells remaining attached to their wells following incubation with each compound and subsequent washing steps. […] The agents that affect cell adhesion can be monitored through remodeling of actin filaments. […] Changes in actin assembly and cell shape after treatment with 12 compounds were determined. […]

[2] = test system: Tg(fli1:EGFP)^y1 zebrafish embryos; test: Vascular development in zebrafish embryos; assay type: in vivo
Description: Zebrafish were raised in accordance with the established protocols (19-20). The age of embryos is indicated by the hours after fertilization and days after fertilization for all experimental data shown herein. For the screening study, zebrafish embryos were incubated with the selected compounds at a concentration of 5-10 μM. Treated embryos were then examined under a 100× PlanNeofluor objective mounted on a Nikon TE-200 epifluorescence microscope. Images of embryos bearing GFP-positive cells were captured with a Zeiss stereomicroscope.
To elucidate the potential impact of DAL on the process of vascular network formation, its effects in zebrafish embryos at different stages of development were assessed. To visualize vessel defects, transgenic fish expressing EGFP in endothelial cells (Tg(fli1:EGFP)^y1) were used (19-20). This model expresses EGFP in blood vessel ECs throughout normal development and during fin regeneration (21). The effects of DAL on normal vascular development in zebrafish embryos were first characterized. In control embryos, developing vessels migrated from the lateral plate mesoderm to the midline, where they coalesced into a vascular cord. These endothelial clusters subsequently established the pattern of the dorsal aorta and posterior cardinal vein. Intersomitic vessels sprouted at designated branch sites in control embryos after dorsal aorta formation.

AKT1 = AKT1 (Homo sapiens, UniProt P31749); test: Kinase inhibition screening; assay type: biochemical; conditions: 10-dose, starting at 100 μM, 1 μM ATP
Description: (§1) To determine kinase activity of DAL, various kinases (AKT1, AKT2, AKT3, PKA, PKC alpha, PKC delta, PAK1, EPHB2, EPHB4, p38 alpha, PI3K-alpha, PI3K-beta, PI3K-gamma, PI3K-delta) were screened in a 10-dose IC50 mode with threefold serial dilutions starting at 100 μM. Staurosporine was used as a control starting at 10 μM and the reactions were carried out at 1 μM ATP.
(§2) Without wishing to be bound by theory, DAL brings about its antivascular effects by destabilizing cell adhesion through the actin cytoskeleton. It was next sought to identify which specific adhesion pathway it targets. Mechanical attachment at cell-cell adherens and tight junctions is regulated by dynamic changes in the actin cytoskeleton. Adherens junctions are composed of E-cadherin/β-catenin complexes and are connected to the actin cytoskeleton via sa-catenin (25-26), while tight junctions consist of transmembrane claudins and occludin and are associated with the actin cytoskeleton via ZO proteins (27-28). Therefore, potential targets of DAL in signaling pathways involved in actin remodeling were evaluated. […] Then, it was sought to determine whether Rho-GTPase family members are targets for DAL due to the disruption of cell adhesion and actin network remodeling along with inhibited motility. Rho-GTPases (e.g., Rac1) plays an important role in actin cytoskeletal organization and is involved in the coordination of cell adhesion (29). Furthermore, Rac1 is responsible for stabilizing endothelial cell junctions by opposing actin remodeling by Rho (30). In order to migrate, cancer cells employ dynamic remodeling of the actin cytoskeleton, form protrusive structures and generate forces necessary to produce cell translocation in the process regulated by Rho-GTPase Rac1. To assess whether DAL can modulate Rac1, RhoA, and Cdc42 activities, affinity purification assays were employed to monitor RhoA and Cdc42/Rac1 activity. The Rho-Binding Domain (RBD) of the Rho effector protein rhotekin and the p21 Binding Domain (PBD) of the Cdc42/Rac effector protein p21 activated kinase 1 (PAK) were applied to pull down active forms of each protein.

AKT2 = AKT2 (Homo sapiens, UniProt P31751); test: Kinase inhibition screening; assay type: biochemical; conditions: 10-dose, starting at 100 μM, 1 μM ATP
Description: as §1, §2

AKT3 = AKT3 (Homo sapiens, UniProt Q9Y243); test: Kinase inhibition screening; assay type: biochemical; conditions: 10-dose, starting at 100 μM, 1 μM ATP
Description: as §1, §2

EPHB2 = EPHB2 (Homo sapiens, UniProt P29323); test: Kinase inhibition screening; assay type: biochemical; conditions: 10-dose, starting at 100 μM, 1 μM ATP
Description: as §1, §2

PI3K-alpha = PI3K-alpha (Homo sapiens, UniProt P42336); test: Kinase inhibition screening; assay type: biochemical; conditions: 10-dose, starting at 100 μM, 1 μM ATP
Description: as §1, §2

PI3K-beta = PI3K-beta (Homo sapiens, UniProt P42338); test: Kinase inhibition screening; assay type: biochemical; conditions: 10-dose, starting at 100 μM, 1 μM ATP
Description: as §1, §2

PKC alpha = PKC alpha (Homo sapiens, UniProt P17252); test: Kinase inhibition screening; assay type: biochemical; conditions: 10-dose, starting at 100 μM, 1 μM ATP
Description: as §1, §2

p38 alpha = p38 alpha (Homo sapiens, UniProt Q16539); test: Kinase inhibition screening; assay type: biochemical; conditions: 10-dose, starting at 100 μM, 1 μM ATP
Description: as §1, §2

Chain of EPHB2 (P29323 19-1055, species assumed): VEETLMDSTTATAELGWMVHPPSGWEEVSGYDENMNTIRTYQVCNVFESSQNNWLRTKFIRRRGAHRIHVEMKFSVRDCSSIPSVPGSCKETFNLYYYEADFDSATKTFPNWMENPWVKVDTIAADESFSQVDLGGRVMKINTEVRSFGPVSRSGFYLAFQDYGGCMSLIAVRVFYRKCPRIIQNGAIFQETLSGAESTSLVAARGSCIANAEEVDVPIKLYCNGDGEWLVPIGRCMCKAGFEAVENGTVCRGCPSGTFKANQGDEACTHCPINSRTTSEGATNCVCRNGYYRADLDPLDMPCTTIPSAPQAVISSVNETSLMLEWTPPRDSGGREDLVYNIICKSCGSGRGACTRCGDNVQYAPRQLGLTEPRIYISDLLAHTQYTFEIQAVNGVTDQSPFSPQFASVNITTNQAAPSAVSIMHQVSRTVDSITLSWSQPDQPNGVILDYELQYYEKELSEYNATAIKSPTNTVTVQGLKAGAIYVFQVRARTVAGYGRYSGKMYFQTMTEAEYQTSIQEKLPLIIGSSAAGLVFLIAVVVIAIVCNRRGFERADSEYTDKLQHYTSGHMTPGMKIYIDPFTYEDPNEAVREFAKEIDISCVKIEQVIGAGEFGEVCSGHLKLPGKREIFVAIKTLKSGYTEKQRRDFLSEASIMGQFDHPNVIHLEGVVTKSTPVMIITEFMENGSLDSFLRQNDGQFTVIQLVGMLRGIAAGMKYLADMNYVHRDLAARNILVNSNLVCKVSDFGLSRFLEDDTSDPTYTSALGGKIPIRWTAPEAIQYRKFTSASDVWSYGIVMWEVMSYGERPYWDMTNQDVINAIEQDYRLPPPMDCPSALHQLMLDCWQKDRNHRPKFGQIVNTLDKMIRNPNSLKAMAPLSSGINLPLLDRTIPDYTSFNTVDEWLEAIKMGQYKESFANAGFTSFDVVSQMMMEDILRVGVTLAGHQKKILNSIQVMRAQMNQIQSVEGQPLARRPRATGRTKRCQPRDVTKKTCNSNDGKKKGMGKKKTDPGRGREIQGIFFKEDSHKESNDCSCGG
Chain of PI3K-alpha (P42336 whole entry, species assumed): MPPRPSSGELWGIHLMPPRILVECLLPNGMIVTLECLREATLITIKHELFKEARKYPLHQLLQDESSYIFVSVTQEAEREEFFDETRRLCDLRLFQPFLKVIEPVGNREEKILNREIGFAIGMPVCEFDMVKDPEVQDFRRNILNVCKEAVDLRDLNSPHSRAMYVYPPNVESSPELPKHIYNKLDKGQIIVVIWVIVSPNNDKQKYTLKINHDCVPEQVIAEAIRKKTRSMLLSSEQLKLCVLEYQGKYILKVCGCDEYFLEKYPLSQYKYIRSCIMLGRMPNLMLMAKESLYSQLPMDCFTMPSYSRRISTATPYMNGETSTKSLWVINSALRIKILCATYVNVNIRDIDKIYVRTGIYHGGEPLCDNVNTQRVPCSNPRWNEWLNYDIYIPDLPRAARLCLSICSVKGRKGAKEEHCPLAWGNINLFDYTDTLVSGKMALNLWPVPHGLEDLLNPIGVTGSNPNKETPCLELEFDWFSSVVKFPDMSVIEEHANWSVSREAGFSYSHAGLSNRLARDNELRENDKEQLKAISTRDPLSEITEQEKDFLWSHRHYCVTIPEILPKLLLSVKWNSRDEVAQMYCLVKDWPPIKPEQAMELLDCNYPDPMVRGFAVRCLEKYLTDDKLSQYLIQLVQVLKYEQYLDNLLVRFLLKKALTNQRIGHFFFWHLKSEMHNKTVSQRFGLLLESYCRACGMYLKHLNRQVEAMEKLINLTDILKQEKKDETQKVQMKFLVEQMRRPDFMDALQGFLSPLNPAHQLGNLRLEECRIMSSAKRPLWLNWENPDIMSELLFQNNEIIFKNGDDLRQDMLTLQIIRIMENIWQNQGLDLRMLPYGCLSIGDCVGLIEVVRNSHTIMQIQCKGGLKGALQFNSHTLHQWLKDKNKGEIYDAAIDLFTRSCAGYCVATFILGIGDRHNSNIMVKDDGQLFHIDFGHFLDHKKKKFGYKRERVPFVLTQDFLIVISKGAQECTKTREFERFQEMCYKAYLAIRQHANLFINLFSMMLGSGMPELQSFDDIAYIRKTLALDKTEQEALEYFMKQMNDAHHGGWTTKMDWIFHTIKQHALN
Chain of PI3K-alpha (P27986 whole entry partner, species assumed): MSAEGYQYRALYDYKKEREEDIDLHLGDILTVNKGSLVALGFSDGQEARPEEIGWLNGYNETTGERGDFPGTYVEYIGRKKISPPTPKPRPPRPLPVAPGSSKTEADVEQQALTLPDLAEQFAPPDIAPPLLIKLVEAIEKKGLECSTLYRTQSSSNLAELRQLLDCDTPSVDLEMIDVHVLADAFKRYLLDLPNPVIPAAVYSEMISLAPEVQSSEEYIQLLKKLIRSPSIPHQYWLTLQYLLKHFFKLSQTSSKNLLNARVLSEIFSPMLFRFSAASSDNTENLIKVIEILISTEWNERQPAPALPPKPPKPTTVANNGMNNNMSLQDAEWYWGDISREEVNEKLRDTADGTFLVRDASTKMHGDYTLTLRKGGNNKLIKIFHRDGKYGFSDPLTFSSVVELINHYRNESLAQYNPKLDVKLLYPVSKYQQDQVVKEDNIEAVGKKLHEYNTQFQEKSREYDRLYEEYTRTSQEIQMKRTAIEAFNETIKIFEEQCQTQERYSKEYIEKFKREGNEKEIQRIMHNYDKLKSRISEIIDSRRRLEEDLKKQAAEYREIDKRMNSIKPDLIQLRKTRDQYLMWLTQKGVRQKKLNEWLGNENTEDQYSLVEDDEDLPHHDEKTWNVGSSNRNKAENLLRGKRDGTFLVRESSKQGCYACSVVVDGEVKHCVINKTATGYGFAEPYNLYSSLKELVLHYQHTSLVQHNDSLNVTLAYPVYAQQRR
Chain of AKT1 (P31749 whole entry, species assumed): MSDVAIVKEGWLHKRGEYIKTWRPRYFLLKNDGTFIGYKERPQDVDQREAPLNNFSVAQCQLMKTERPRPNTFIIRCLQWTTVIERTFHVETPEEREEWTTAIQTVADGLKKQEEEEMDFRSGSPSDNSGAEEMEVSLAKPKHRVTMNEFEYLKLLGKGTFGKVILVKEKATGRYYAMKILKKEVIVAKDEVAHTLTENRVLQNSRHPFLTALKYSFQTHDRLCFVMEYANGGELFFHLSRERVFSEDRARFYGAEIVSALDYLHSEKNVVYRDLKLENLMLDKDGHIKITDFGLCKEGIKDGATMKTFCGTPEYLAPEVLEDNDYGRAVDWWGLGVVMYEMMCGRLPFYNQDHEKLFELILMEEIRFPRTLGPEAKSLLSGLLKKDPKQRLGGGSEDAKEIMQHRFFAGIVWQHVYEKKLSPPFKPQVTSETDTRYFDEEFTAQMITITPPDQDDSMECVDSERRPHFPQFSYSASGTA
Chain of PI3K-beta (P42338 whole entry, species assumed): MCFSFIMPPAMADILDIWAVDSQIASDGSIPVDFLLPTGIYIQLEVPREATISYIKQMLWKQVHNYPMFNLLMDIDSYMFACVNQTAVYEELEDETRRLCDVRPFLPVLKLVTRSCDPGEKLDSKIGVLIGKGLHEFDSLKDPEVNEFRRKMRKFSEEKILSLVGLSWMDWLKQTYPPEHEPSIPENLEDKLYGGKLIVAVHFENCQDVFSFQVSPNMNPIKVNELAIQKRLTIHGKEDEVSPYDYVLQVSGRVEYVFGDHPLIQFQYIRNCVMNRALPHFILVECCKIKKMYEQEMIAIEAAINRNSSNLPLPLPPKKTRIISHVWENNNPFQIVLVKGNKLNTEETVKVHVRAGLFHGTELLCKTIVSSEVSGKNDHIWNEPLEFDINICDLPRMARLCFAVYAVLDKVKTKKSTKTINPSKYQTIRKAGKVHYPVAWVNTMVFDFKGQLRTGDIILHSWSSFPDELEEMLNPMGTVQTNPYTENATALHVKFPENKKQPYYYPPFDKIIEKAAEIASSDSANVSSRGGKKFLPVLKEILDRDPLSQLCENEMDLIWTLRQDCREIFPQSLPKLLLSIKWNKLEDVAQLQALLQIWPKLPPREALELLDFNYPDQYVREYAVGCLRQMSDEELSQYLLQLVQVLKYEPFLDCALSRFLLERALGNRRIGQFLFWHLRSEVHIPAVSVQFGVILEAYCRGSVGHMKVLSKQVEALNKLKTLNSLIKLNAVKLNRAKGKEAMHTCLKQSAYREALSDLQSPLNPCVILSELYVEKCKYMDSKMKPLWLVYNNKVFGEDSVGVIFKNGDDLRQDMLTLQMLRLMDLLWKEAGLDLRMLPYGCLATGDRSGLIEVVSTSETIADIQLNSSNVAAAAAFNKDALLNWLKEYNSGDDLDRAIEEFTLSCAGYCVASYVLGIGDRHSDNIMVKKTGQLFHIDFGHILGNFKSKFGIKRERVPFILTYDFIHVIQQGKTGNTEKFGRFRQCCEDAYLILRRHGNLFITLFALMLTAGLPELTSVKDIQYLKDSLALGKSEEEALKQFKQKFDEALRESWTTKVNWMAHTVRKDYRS
Chain of PI3K-beta (P27986 whole entry partner, species assumed): as the sequence (P27986 whole entry partner, species assumed) above

Compound: CC1(C)C=CC2=C(O1)C(=O)c1ccccc1C2=O [DAL, dehydro-alpha-lapachone]
- signs of toxicity (cachexia, ruffled fur, diarrhea, anorexia, skin ulceration, toxic death) [1]: low toxicity; also recorded: no signs of toxicity
- complexity of the arterial network ([2]; zebrafish embryos): profound reduction
- vessel branch formation / sprouting of intersomitic vessels ([2]; zebrafish embryos 48 hours after fertilization, DAL 5 μM): failed to occur; also recorded: failed to form vessel branches
- effect on kinase AKT1 (AKT1): no significant effects
- effect on kinase AKT2 (AKT2): no significant effects
- effect on kinase AKT3 (AKT3): no significant effects
- effect on kinase EPHB2 (EPHB2): no significant effects
- effect on kinase PI3K-alpha (PI3K-alpha): no significant effects
- effect on kinase PI3K-beta (PI3K-beta): no significant effects
- effect on kinase PKC alpha (PKC alpha): no significant effects
- effect on kinase p38 alpha (p38 alpha): no significant effects

From US20140161720A1, “TREATMENT OF ANGIOGENIC- OR VASCULAR-ASSOCIATED DISEASES” (THE GENERAL HOSPITAL CORPORATION, priority 2011, published 2014)
